Entries after “also recorded” stand apart in the source; their conditions may differ.
How the values were obtained:
DLBCL patients [1] = assay: Prelude phase 3 DLBCL maintenance trial, survival analysis by chromaturia and rs309605 genotype; type: in vivo, human
Excerpt: Prelude trial is a multicenter, phase 3, randomized, double-blind, placebo-controlled trial enrolled patients at high risk of recurrence following rituximab-cyclophosphamide, doxorubicin, vincristine, and prednisone (R-CHOP). […] Primary endpoint was DFS 3 years after the last patient entered treatment (FIG. 1A).
Unlike most oncology biomarker studies focusing on mutations or target protein overexpression in tumor cells, germline genetic polymorphisms also contribute to the various responses to the same drug in different patients.
For both rs309605 and rs309604, allele A represents T and allele B represents C. […] A p-value smaller than 5×10^−8 is usually considered the threshold for genome-wide significance.
To examine whether rs309605 is merely a prognostic biomarker, DNA samples from 238 patients from placebo control group were genotyped at rs309605 using the Taqman SNP assays.

[2] = system: cultured cancer cells (colon, NSCLC, glioblastoma, diffuse large B-cell and cutaneous T-cell lymphoma, multiple myeloma, Waldenstrom's macroglobulinemia); conditions: cited from earlier work
[3] = system: human cancer xenografts (colorectal carcinomas, glioblastomas, diffuse large B-Cell lymphomas, Waldenstrom's macroglobulinemia, multiple myeloma); conditions: single-agent treatment; cited from earlier work
DLBCL patients [4] = assay: S028 phase 2 DLBCL 1st line trial, enzastaurin in combination with R-CHOP; type: in vivo, human
Procedure: Thus, subgroup analysis was conducted using both IPI and rs309605 and rs309604.

GBM patients = assay: S008 GBM phase 1/2 first line trial; type: in vivo, human
Excerpt: FIG. 4A is a Kaplan-Meier plot showing time to overall survival in the AA+AB group and BB group. FIG. 4B is a Kaplan-Meier plot showing time to overall survival in the chromaturia group and non-chromaturia group.
The DNA samples from blood of GBM patients in S008 trials were used to genotype rs309605 by Taqman assay.

[5] = system: other PKC isoforms (α, γ, ε); conditions: Graff et al. 2005; read-out: IC50s other PKC isoforms (α, γ, ε); cited from earlier work
[6] = system: VEGF induced angiogenesis; conditions: oral dosing, plasma exposure similar to human clinical trials; cited from earlier work
[7] = enzastaurin arm, rs309605/rs309604
[8] = enzastaurin arm, rs309605/rs309604, p-value 5.75×10^−9

Cn1cc(C2=C(c3cn(C4CCN(Cc5ccccn5)CC4)c4ccccc34)C(=O)NC2=O)c2ccccc21 [enzastaurin, 3-(1-methyl-1H-indol-3-yl)-4-[1-[1-(pyridin-2-ylmethyl)piperidin-4-yl]-1H-indol-3-yl]-1H-pyrrole-2,5-dione]
overall survival, AA+AB vs BB genotype in patients without chromaturia (DLBCL patients [1]; 177 enzastaurin treated patients without chromaturia): no significant difference in overall survival | Event per 1000 person-month (DLBCL patients [1]; AA + AB (rs309605), Chrom): 0.65 per 1000 person-month | Number of events (OS) (DLBCL patients [1]; AA + AB (rs309605), Chrom, N 82): 3 | Event per 1000 person-month (DLBCL patients [1]; AA + AB (rs309605), Non-Chrom): 3.69 per 1000 person-month | Number of events (OS) (DLBCL patients [1]; AA + AB (rs309605), Non-Chrom, N 158): 27 | Event per 1000 person-month (DLBCL patients [1]; All types (AA, AB, BB), Chrom): 1.96 per 1000 person-month | Number of events (OS) (DLBCL patients [1]; All types (AA, AB, BB), Chrom, N 95): 10 | Event per 1000 person-month (DLBCL patients [1]; All types (AA, AB, BB), Non-Chrom): 4.83 per 1000 person-month | Number of events (OS) (DLBCL patients [1]; All types (AA, AB, BB), Non-Chrom, N 187): 41 | number of patients who survived, AA+AB genotype (DLBCL patients [1]; [7]): 209 | number of patients who survived, BB genotype (DLBCL patients [1]; [7]): 22 | number of patients who had events, AA+AB genotype (DLBCL patients [1]; [8]): 31 | number of patients who had events, BB genotype (DLBCL patients [1]; [8]): 22 | overall survival, AA+AB genotype vs BB genotype (DLBCL patients [1]; enzastaurin treated arm, rs309605 and rs309604): significantly improved survival; also recorded: significant longer overall survival | overall survival, AA+AB genotype at rs309605 with chromaturia (DLBCL patients [1]; interaction of genotype and chromaturia, p value=0.017): best overall survival | overall survival / efficacy, enzastaurin arm vs placebo arm (DLBCL patients [1]; overall patient population, N=504 vs N=254, 500 mg daily oral): failed to demonstrate statistically significant efficacy; also recorded: no significant difference | intracellular signaling through the PKC and PI3K/AKT pathways ([2]; clinically relevant concentrations, suppresses phosphorylation of AKT, mTOR, p70S6K, S6, 4EBP1, CREB, GSK3β): blocks intracellular signaling through the PKC and PI3K/AKT pathways | tumor cell apoptosis ([2]; cultured cancer cells): induces tumor cell apoptosis | tumor cell proliferation ([2]; cultured cancer cells): inhibits tumor cell proliferation | growth of human cancer xenografts [3]: suppresses growth of multiple human cancer xenografts | survival, AA+AB vs BB genotype at rs309605 (DLBCL patients [4]; enzastaurin treatment arm, with R-CHOP): significant better survival | overall survival, enzastaurin arm vs control arm (DLBCL patients [4]; general patient population, with R-CHOP): no significant difference | Progression Free (PFS) survival and overall survival, enzastaurin arm (DLBCL patients [4]; patients AA+AB at rs309605 and rs309604 and IPI>2): superior efficacy | overall survival, AA or AB genotype vs BB genotype at rs309605 (GBM patients): better overall survival | survival, chromaturia vs without chromaturia (GBM patients): significant improved survival | IC50 [5]: 40 to 100 nM | VEGF induced angiogenesis [6]: suppresses VEGF induced angiogenesis

From patent US11421280B2 (DENOVO BIOPHARMA LLC, priority 2016, dated 2022)
